Data on 1 substance can be found in patent publication US6004932A, “Use of glucagon as a metabolic conditioner for dairy cows and other ruminants” (Iowa State University Research Foundation, Inc., priority 1998, dated 1999).

Type in all cases: in vivo
Data set [1] deals with multiparous Holstein cows. Description: Effect of glucagon on liver glycogen content of dairy cows, liver biopsies. The conditions noted are these: NTG and STG groups, FIG. 3. On the procedure: (§1) Glucagon purified from bovine pancreas, was weighed, dissolved in 0.09% NaCl adjusted to pH 10.5, and diluted so that the amount to be infused daily was contained in 480 ml to allow for an infusion rate of 20 ml/h. All glassware that was to be in contact with glucagon was rinsed with a solution of 1.0% bovine serum albumin to prevent adherence of glucagon to glass surfaces.
The four groups of 10 multiparous Holstein cows per group that were used for the main trial were normal controls (NC), normal cows treated with glucagon (NTG), susceptible controls that should be inducible into ketosis (SC), and susceptible cows treated with glucagon (STG). The two groups of 10 normal cows were selected from cows that had body condition scores at calving that ranged from 3.2 to 3.8. The two groups of 10 susceptible cows were selected from obese cows that have been fed at 2 times NRC requirements for energy during late lactation and throughout the dry period so they calved at a body condition score of 4.0 to 4.5. […]
(§2) A liver biopsy was taken at 7 days postpartum and analyzed immediately for triacylglycerols and glycogen. […]
(§3) On d 14 postpartum, the SC and the STG groups began the FRBD (feed restriction and 1,3-butanediol in the diet) protocol in which feed intake was restricted to 80% of the average intake for the previous 2 days and 1,3-butanediol (BD) was added, a precursor of ketone bodies, to the ration in increasing quantities either until the cow became ketotic or until 1.4 kg of BD was offered daily. […]
Glycogen and triacylglycerol concentrations of liver samples were determined as described by Mills, S. E. et al., "Characterization of metabolic changes during a protocol for inducing lactation ketosis in dairy cows", J. Dairy Sci. 69:352 (1986a). Total lipid content was measured as described by Drackley, J. K. et al., "Metabolic changes in blood and liver of dairy cows during feed restriction or administration of 1,3-butanediol", J. Dairy Sci., 74:4254 (1991). […]

The subject of data set [2] is multiparous Holstein cows. Description: Effect of glucagon on liver triacylglycerol (lipid) levels of dairy cows, liver biopsies. As for the experimental part:
as §1
The four groups of 10 multiparous Holstein cows per group that were used for the main trial were normal controls (NC), normal cows treated with glucagon (NTG), susceptible controls that should be inducible into ketosis (SC), and susceptible cows treated with glucagon (STG). […]
as §2, §3
Glycogen and triacylglycerol concentrations of liver samples were determined as described by Mills, S. E. et al., "Characterization of metabolic changes during a protocol for inducing lactation ketosis in dairy cows", J. Dairy Sci. 69:352 (1986a). […]

The test system of data set [3] is dairy cows. As to the kind of experiment: Toxicity observation during glucagon treatment of dairy cows. The conditions noted are these: treated dairy cows, 10 mg/day. On the procedure: On d 14 postpartum, the SC and the STG groups began the FRBD (feed restriction and 1,3-butanediol in the diet) protocol in which feed intake was restricted to 80% of the average intake for the previous 2 days and 1,3-butanediol (BD) was added, a precursor of ketone bodies, to the ration in increasing quantities either until the cow became ketotic or until 1.4 kg of BD was offered daily. The STG group at 21 days postpartum began to receive a continuous intravenous infusion of 10 mg of glucagon daily, which continued for 14 days. The SC group were infused with saline as a vehicle control. The NC and the NTG groups continued to receive feed for ad libitum intake, but the NTG group received an infusion of glucagon from d 21 to 35 postpartum and the NC group was infused with vehicle control. (The NTG group gave information on how normal early lactation cows respond to 14-day intravenous infusions of glucagon).

Data set [4] concerns early lactation dairy cows. As to the kind of experiment: Preliminary data on glucagon doses above 10 mg/day in early lactation dairy cows. The conditions noted are these: doses of greater than 10 mg/day; inventors' preliminary data.

As to glucagon, the “liver glycogen content after d 38, before the 42-d biopsy” value in data set [1] (after termination of infusion) is reported as “dropped dramatically”. Moreover, in data set [1] (after infusions began at d 21), the “liver glycogen concentration from the 20-d to the 23-d biopsy sample” value is listed as “decreased”. Besides, the “liver glycogen concentration from d 23 up to the d 38 biopsy” value in data set [1] (d 38 is 3 d after infusions stopped) is reported as “increased at a parallel rate”. Also, the “liver triacylglycerol, covariate adjusted to average d-7 value, normal cows” value in data set [2] (NTG vs NC, FIG. 2) is “only a slight difference between the NC and the NTG groups”. In addition, the “change in concentration of lipid in livers of normal cows” value in data set [2] (normal cows (NTG vs NC), 10 mg/d intravenous infusion d 21-35 postpartum, FIG. 1) is “no major decrease”. Further, the “glucagon toxicity in the animals” value in data set [3] was “without any indication of glucagon toxicity”. Also, in data set [4], the “incidence of fatty liver at high dose” value is reported as “may actually increase the incidence of fatty liver”.
